Key:
[1] = tested on: primary human pancreatic cancer tissue; test: In vivo treatment of implanted patient pancreatic tumor tissue with gemcitabine plus SB431542; parameters: species or system mice; conditions: treatment from day 7, assessed day 28
Protocol: FIG. 33: In vivo treatment with the Alk4/7 inhibitor SB431542. This illustrates Nodal/Activin inhibition to eliminate primary human pancreatic CSC in vivo. Tumor tissue from patient with pancreatic cancer was implanted into immunocompromised mice. Treatment was started on day 7 after implantation. Mice were randomized to gemcitabine alone or gemcitabine plus SB431542. Tumor growth was assessed on day 28.

[2] = tested on: pretreated Qtracker-labeled pancreatic cancer cells; test: Systemic infusion assay of pretreated cells (lung metastasis); type: in vivo, mice; conditions: cells pretreated in vitro, systemically infused; lungs scanned
Source text: Recently, the inventors have shown that the chemokine receptor CXCR4 and its specific lig- and Stromal-Derived Factor-1 (SDF-1) plays a pivotal role in metastasis of pancreatic CSC (see Hermann et al., 2007, supra). […] Pretreated and Qtracker-labeled cells were systemically infused. Seeded cells were tracked using near infrared scanning of the lungs as the primary target organ. Positive signals were confirmed by histological analysis.
(§1) In vitro treatment of pancreatic cancer cells. […] For the evaluation of the in vivo tumorigenicity, […] L3.6pl cells were pretreated with the respective regimen and the remaining viable cells were orthotopically implanted into the pancreas of nude mice and evaluated on day 35. For the systemic infusion assay, cells were labelled with the Qtracker 800 labelling kit (Invitrogen) according to the manufacturer's instructions, and 5×10^5 cells were injected intravenously into mice. After 4 weeks, explanted lungs were scanned for metastases with a near-infrared imaging platform (Odyssey, Li-cor, Lincoln, Nebr.). Positive signals were verified by histology (H&E staining).

[3] = tested on: side population (SP) cells; test: Side population (Hoechst 33342 exclusion); type: cell-based, human
Protocol: (§2) First, pancreatic CSC were clonally expanded as CSC-enriched spheres (FIGS. 18C1-18C5). Floating spheres were treated in ultra low adhesion 6-well plates. After completion of the treatment, five randomly selected high-power fields were analyzed.

[4] = tested on: L3.6pl pancreatic cancer cells; test: Tumorigenicity after in vitro pre-treatment and orthotopic implantation; type: in vivo, mice
Protocol: After 96 hours of pretreatment, the remaining viable cells were orthotopically implanted into the pancreas of mice, which received no further treatment in vivo.
Cultivated pancreatic cancer cells were exposed to either Gemcitabine alone representing clinical standard therapy, SB431542 alone, or a combination of Gemcitabine and SB431542 in the above given respective concentrations. After 96 hours of pretreatment, the remaining viable cells were orthotopically implanted into the pancreas of mice, which received no further treatment in vivo.
A prerequisite of CSC is their ability to form tumours in secondary recipients. Due to the limited number of cancer (stem) cells that can be obtained from primary tissues, it is virtually impossible to reproducibly perform in vivo treatment experiments with fresh patient-derived cells. Therefore, all subsequent in vivo experiments were performed with the established L3.6pl pancreatic cancer cells. The design of the experiment is illustrated in FIG. 20A. […] After 4 days of pretreatment, the surviving cells were orthotopically implanted into the pancreas, which received no further in vivo treatment. Tumorigenicity was first determined by PET scans on day 30 (FIGS. 20B, 20C; left panel) and by final macroscopic and microscopic histological evaluation on day 35 (FIGS. 20B, 20C; right panel).
(§3) Animals and Orthotopic Implantation of Tumour Cells. Single-cell suspensions were orthotopically implanted into the pancreas of female NMRI nu/nu mice (Janvier, Le Genest-Saint-Isle, France) (Hermann et al., 2007, supra). Size and weight of the pancreatic tumours were monitored.
as §1

pancreatic cancer cells = test: Transmigration assay (modified Boyden chamber, SDF-1 stimulus); type: cell-based, human; conditions: SDF-1 as migratory stimulus
[5] = tested on: L3.6pl orthotopic pancreatic tumours; test: In vivo treatment of established orthotopic pancreatic cancer (Gemcitabine, Cyclopamine, Rapamycin)
Protocol: Gemcitabine was administered twice a week by intraperitoneal injections at 125 mg/kg BW.
In order to test the identified combination therapy in a clinically most relevant setting, a model of established orthotopic pancreatic cancer was used in this experiment. […] The detailed experimental setup is depicted in FIG. 21A. […] Gemcitabine was given for a prolonged period of 11 weeks in analogy to clinical practice. Tumour volume was non-invasively measured on day 42 using a caliper (FIG. 21B), and was controlled via MR imaging on day 49 (FIG. 21C).
as §3
In vivo treatment of established pancreatic cancers. Seven days after orthotopic implantation of L3.6pl cells, mice were randomized to the respective treatment groups. Gemcitabine was administered biweekly (125 mg/kg i.p.). […] Rapamycin (5 mg/kg/day; Wyeth, Madison, N.J.) was orally administered via the drinking water as reported previously (Huber et al., 2007, supra).

pancreatic CSC spheres = test: CSC-enriched tumour sphere assay; type: cell-based, human; conditions: ultra low adhesion 6-well plates
Protocol: as §2
Human pancreatic cancer cell line. The highly metastatic human pancreatic cell line L3.6pl was maintained in DMEM medium (Invitrogen, Karlsruhe, Germany) with 12% Fetal Calf Serum (Biochrom, Berlin, Germany), Glutamax (Invitrogen), non-essential amino acids, and vitamins (all from PAN, Aidenbach, Germany) (Hermann et al., 2007, supra). Cultures were kept no longer than 4 weeks after recovery from frozen stocks. CSC spheres were cultured in DMEM-F12 supplemented with B27 (Gibco, Karlsruhe, Germany) and FGF-2 (PeproTech EC, London, United Kingdom) (Hermann et al., 2007, supra).

[6] = tested on: primary human pancreatic cancer tissue; test: In vivo triple combination treatment of implanted patient pancreatic tumor tissue; parameters: species or system mice; conditions: treatment from day 21; assessed up to 100 days
Protocol: Tumor tissue from patient with pancreatic cancer was implanted into immunocompromised mice. Treatment was started on day 21 after implantation. Mice were randomized to gemcitabine alone or combination therapy. Tumor growth was assessed up to 100 days.

[7] = tested on: CD133+ CXCR4+ CSC subpopulation; test: Flow cytometry of migrating CSC; type: cell-based, human

In the case of `Nc1ccn(C2OC(CO)C(O)C2(F)F)c(=O)n1` (stereo not drawn) [Gemcitabine, 4-amino-1-[3,3-difluoro-4-hydroxy-5-(hydroxymethyl)tetrahydrofuran-2-yl]-1H-pyrimidin-2-one], the “tumor response / regression” value [1] is reported as “strong response”, the “metastatic activity in vivo” value [2] is reported as “all mice receiving Gemcitabine-pretreated cells showed evidence for metastasis” and the “side population (SP) cells” value [3] is reported as “unaffected”. The “tumour take rate / tumorigenicity” value ([4]; 4 days of pretreatment, PET day 30, histology day 35) was “did not generate any effect”, the “tumorigenicity after in vitro pre-treatment” value ([4]; 96 hours pretreatment, 100 ng/ml Gemcitabine, 5 μM SB431542) was “close to no effect” and the migratory activity (pancreatic cancer cells) was “unable to significantly reduce”. For the same compound, the “prolongation of median survival” value ([5]; Gemcitabine 125 mg/kg i.p. twice a week) was 22 days, the survival ([5]; Gemcitabine vs control, CRG vs Gemcitabine alone) was “significantly prolonged” and the tumour size ([5]; compared to control) was “significantly smaller compared to control”. The “tumour volume on day 42 (caliper)” value ([5]; day 42) was “considerable tumor size”, the “tumour volume via MR imaging on day 49” value ([5]; day 49) was “considerable tumor size” and the “latest day of survival” value ([5]; mouse, in vivo) was at most 71 days. The median survival ([5]; mouse, in vivo) was 57 days, the tumour take rate ([5]; mouse, in vivo) was 100% and the “CD133+ cells in the residual tumour tissue” value ([5]; orthotopic mouse model of xenotransplanted human pancreatic cancer) was “significant enrichment”. For the same compound, the “tumour spheres / CD133+ cells in CSC-enriched spheres” value (pancreatic CSC spheres) was “marked relative increase of CD133^+ cells”, the tumor growth [6] was “virtually unrestricted growth” and the “CD133+ CXCR4+ migrating CSC” value [7] was “enriches”.

Reference: patent US20110151020A1, “ACTIVE SUBSTANCE COMBINATION WITH GEMCITABINE FOR THE TREATMENT OF EPITHELIAL CANCER” (priority 2008, published 2011)
